From patent publication US5229413A, “Compositions containing indole-2-carboxylate compounds for treatment of CNS disorders” (G. D. Searle & Co., priority 1992, dated 1993)
Where two headings read alike, the source gives them in different places.

What was measured:
[1] = target: T1, NMDA receptor (rat brain receptor expressed in Xenopus oocytes) (Rattus norvegicus, UniProt P35439); test: Xenopus oocytes injected with rat cortex mRNA, blocking of glycine effects (voltage clamp); format: cell-based; conditions: 100 μM NMDA
T1 construct: PolyA+ RNA (mRNA) was extracted from adult male rat cortex; expressed in transfected cells; host or cells: Xenopus laevis oocytes microinjected with rat cortex poly(A)+ RNA
Procedure: PolyA+ RNA (mRNA) was extracted from adult male rat cortex using the refined guanidinium thiocyanate method developed by Han et al [J. H. Han et al., Biochemistry, 26, 1617-1625 (1987)] and the oligo (dT) cellulose chromatography procedure of Adiv and Leder [H. Aviv et al., Proc. Nat. Acad. Sci., 69, 1408-1412 (1972)]. Aliquots of mRNA (1.0 mg/ml water) were stored at -20° C.
Gravid adult female Xenopus laevis (Xenopus One, Ann Arbor, Mich. or NASCO, Ft. Atkinson, Wis.) were anaesthetized with 0.2% (w/v) Tricaine (3-amino benzoic acid ethyl ester; Sigma) and subjected to partial ovarectomy. Excised oocytes were then prepared and microinjected [N. W. Kleckner et al, Science 241 835-837 (1988)]. Oocytes were treated for one hour in Barth's solution (88.0 mM NaCl, 1.0 mM KCl, 2.4 mM NaHCO3, 0.41 mM CaCl2, 0.82 mM MgSO4, 10.0 μg/ml penicillin, 100.0 μg/ml streptomycin, 10.0 mM HEPES, pH 7.5) containing 1.5 mg/ml Neutral Protease (Beohringer Mannheim Biochemicals, Grade II). Oocytes were then placed in Barth's solution containing 100.0 mM sucrose and manually defolliculated with fine forceps. Defolliculated oocytes were then microinjected with approximately 50 ng of mRNA in Barth's solution at 16°-18° C.
Oocytes were assayed 2-8 days later for rat brain receptor expression via single electrode voltage. clamp (Axoclamp 2A, Axon Instruments) in a manner similar to that previously described [Kleckner et al, Id.]. […] Drugs were added to the perfusate and inward currents induced by agonist compounds were measured at peak steady state response. […] Antagonist compounds were perfused for a minimum of 3.0 minutes prior to subsequent agonist co-application. Data are expressed as percent maximal response (mean±S.E.M.). Half-maximal responses (EC50 's) and slopes for dose response data were determined from the least squares fit to the logistic regression equation.

hippocampal slice = test: Epileptic hippocampal slice, 0% Mg+2-induced epilepsy; format: cell-based, Sprague-Dawley albino rat; conditions: Rattus norvegicus, 30 μM Compound No. 6, 0% Mg+2
Text: Hippocampal slices (450 μ) were obtained from male Sprague-Dawley albino rats (100-325 g). The method of slice preparation has been detailed elsewhere [A. H. Ganong et al., Brain Res., 273, 170-174 (1983)]. Slices were stored in a humidified interface chamber at room temperature and bathed in artificial cerebrospinal fluid (ACSF) which contained (in mM): NaCl 124.0, KCl 5.0, KH2 PO4 1.0, NaHCOP3 26.4, CaCl2, 2.0, MgSO4 1.5 and D-glucose 10.0, and was equilibrated with 95% 02:5% CO2. When needed for study, slices were placed one at a time in a small submersion chamber maintained at 35° C. where they were continuously perfused at 1.0-2.0 ml/min. Fresh solutions reached the recording chamber within 20 seconds and the perfusate was completely changed over within a minute. Additional oxygen and stirring was provided by an air jet (95% O2 :5% CO2) directed at the surface of the ACSF. Standard electrophysiological techniques were employed. Extracellular recording electrodes were glass micropipettes filled with 2.0 M NaCl and broken back to 2.0 m.OMEGA. resistance. All recording was from the somatic region of CA1. […] Intracellular recording electrodes of 60-100 MQ resistance were filled with 2.5 M KAc. […] The Schaffer collateral/commissural fibers were stimulated with tungsten bipolar stimulating electrodes at a rate of 0.03 Hz. The resulting field EPSP (S/C-CA1 EPSP) and the DC potential were amplified by an Axoprobe 1 amplifier and were continuously monitored on a Tektronix 5111A storage oscilloscope and a Gould 2300 chart recorder with a Gould Waveform storage module. Epileptiform activity was induced by omission of Mg++ ions from the perfusate, which removes the Mg++ mediated voltage-dependent block of the NMDA. receptor [B. Ault et al., J. Physiol., 307, 413-428 (1980)], or by the addition of the GABA antagonist picrotoxin. Drugs were added to the perfusate and zero magnesium refers to solutions which contain no added magnesium. The amplitude of the stimulus evoked primary population spike was used to assess the effects of experimental manipulations on the efficacy of synaptic function.

IC50 ([1]; IC50, 0.1 μM Gly, 0.1 μM glycine): 0.77 ± 0.12 µM
IC50 ([1]; IC50, 1.0 μM Gly, 1.0 μM glycine): 3.2 ± 1.1 µM
IC50 ([1]; IC50, 10 μM Gly, 10 μM glycine): 6.1 ± 3.2 µM
Compound: O=C(O)Cc1c(C(=O)O)[nH]c2cc(Cl)ccc12 [Compound No. 6, 2-carboxy-6-chloro-3-indoleacetic acid]
activity at 30 µM (hippocampal slice; read-out: Burst duration): 60%
activity at 30 µM (hippocampal slice; read-out: Primary population spike amplitude): 97%
activity at 30 µM (hippocampal slice; read-out: Spontaneous activity): 48%
activity at 30 µM (hippocampal slice; read-out: Sum of additional population spike amplitude): 70.1%
